Measured values reported in patent US9249517B2, “Process for production of reduced glutathione” (Kyowa Hakko Bio Co., Ltd., priority 2009, dated 2016).

Assays:
[1] = Solubility of oxidized glutathione in water; type: physicochemical
Source text: Utilizing this characteristic, a solution of oxidized glutathione with concentration beyond saturation solubility can be prepared. […] While the concentration of the supersaturated aqueous oxidized glutathione solution containing a conducting agent other than acid is not limited as long as it can maintain supersaturation state, it is 50 g/L or more, preferably 100 g/L or more, more preferably 150 g/L or more, further preferably 200 g/L or more, most preferably 300 g/L or more.

[2] = 25° C., 24-36 hr
Method: Using an aqueous reduced glutathione solution (100 g/L, pH 2.90) and sulfuric acid, aqueous reduced glutathione solutions (100 g/L) adjusted to pH 0.6, 1.2 and 2.0 were produced.
Each solution was preserved at 25° C. for 24-36 hr, and the residual amount of reduced glutathione was quantified by high performance liquid chromatography (HPLC) under the following conditions. […] As for the impurity, the total amount of the substances other than reduced glutathione and oxidized glutathione was quantified under the following HPLC conditions, and the concentration (g/L) converted to reduced glutathione was calculated.
HPLC Conditions • column: Nucleosil 100-5 C18 φ4.6×150 mm • column temperature: 40° C. • buffer: 10% acetonitrile solution containing 0.405% sodium 1-heptanesulfonate (adjusted to pH 2.0 with phosphoric acid) • flow rate: 1.0 mL/min • detector: UV detector (wavelength 210 nm)

Molecule | stability of supersaturation state ([1]; ambient temperature, requires several days before crystallizing) | supersaturation solubility ([1]; once dissolved, aqueous solution) | saturation solubility in water ([1]; water, ambient temperature (25° C.)) | reduced glutathione residual ratio ([2]; 100 g/L aqueous solution at pH 2.0 or less (pH 0.6, 1.2, 2.0, sulfuric acid) vs pH 2.90, FIG. 1A) | increased amount of impurity due to hydrolysis ([2]; 100 g/L aqueous solution at pH 2.0 or less vs pH 2.90, FIG. 1B)
oxidized glutathione | stable at ambient temperature | over 300 g/L | ≤ 20 mg/mL | – | –
N[C@@H](CCC(=O)N[C@@H](CS)C(=O)NCC(=O)O)C(=O)O [reduced glutathione] | – | – | – | lower reduced glutathione residual ratio as compared to a solution at pH 2.90 | higher increased amount of impurity due to hydrolysis as compared to a solution at pH 2.90
